Measurements from patent US7053219B2, “Isoxazolopyridone derivatives and their use” (Banyu Pharmaceutical Co. Ltd., priority 2001, dated 2006).
pIC50: −log10 of the molar value.

Target: T1, rat metabotropic glutamic acid receptor 7a (Rattus norvegicus, UniProt P35400)
T1 construct: expressed in transfected cells
Assay: Metabotropic glutamic acid receptor-antagonistic effect (Test Method 1, [Ca2+]i by FLIPR)
Type: cell-based
Settings: CHO cells stably expressing rat metabotropic glutamic acid receptor 7a and Gα15, agonist 0.5 mM L-AP4, test compound given 5 minutes before agonist, [Ca2+]i with Fluo-3AM
Text: (Test Method 1) Metabotropic Glutamic Acid Receptor-Antagonistic Effect:
Using LIPOFECTAMINE (by Gibco BRL), CHO cells were transfected with a CDNA of rat metabotropic glutamic acid receptor 7a, which is described in J. Biol. Chem., N. Okamoto et al., Vol. 269, pp. 1231–1236, 1994, to give a cell strain capable of stably expressing rat metabotropic glutamic acid receptor 7a. The metabotropic glutamic acid receptor 7a-transfected CHO cells were further transfected with a Gα15 cDNA, which is describedin J. Biol. Chem., S. Offermanns, M. I. Simon, Vol. 270, pp. 15175–15180, 1995, to give a cell strain capable of stably expressing rat metabotropic glutamic acid receptor 7a and Gα15. The CHO cells capable of stably expressing metabotropic glutamic acid receptor 7a and Gα15 were incubated along with Fluo-3AM (final concentration 4 μM) at 37° C. for 1 hour, and then washed 4 times with an assay buffer (1×Hanks' salt with 2.5 mM probenecid and 20 mM HEPES (N-2-hydroxyethylpiperazine-N′-2-ethanesulfonic acid), and the resulting cells were assayed for [Ca^2+]i. For the determination of [Ca^2+]i, used was a fluorimetric imaging plate reader (FLIPR by Molecular Device). Concretely, using an agonist, 0.5 mM L-AP4, the capacity of the antagonistic substance was measured.
The Hanks' salt was prepared by 10-fold diluting a Hanks' balanced solution (Gibuco BRL 14065-056 10×). […]

T1 sequence (P35400 35-915): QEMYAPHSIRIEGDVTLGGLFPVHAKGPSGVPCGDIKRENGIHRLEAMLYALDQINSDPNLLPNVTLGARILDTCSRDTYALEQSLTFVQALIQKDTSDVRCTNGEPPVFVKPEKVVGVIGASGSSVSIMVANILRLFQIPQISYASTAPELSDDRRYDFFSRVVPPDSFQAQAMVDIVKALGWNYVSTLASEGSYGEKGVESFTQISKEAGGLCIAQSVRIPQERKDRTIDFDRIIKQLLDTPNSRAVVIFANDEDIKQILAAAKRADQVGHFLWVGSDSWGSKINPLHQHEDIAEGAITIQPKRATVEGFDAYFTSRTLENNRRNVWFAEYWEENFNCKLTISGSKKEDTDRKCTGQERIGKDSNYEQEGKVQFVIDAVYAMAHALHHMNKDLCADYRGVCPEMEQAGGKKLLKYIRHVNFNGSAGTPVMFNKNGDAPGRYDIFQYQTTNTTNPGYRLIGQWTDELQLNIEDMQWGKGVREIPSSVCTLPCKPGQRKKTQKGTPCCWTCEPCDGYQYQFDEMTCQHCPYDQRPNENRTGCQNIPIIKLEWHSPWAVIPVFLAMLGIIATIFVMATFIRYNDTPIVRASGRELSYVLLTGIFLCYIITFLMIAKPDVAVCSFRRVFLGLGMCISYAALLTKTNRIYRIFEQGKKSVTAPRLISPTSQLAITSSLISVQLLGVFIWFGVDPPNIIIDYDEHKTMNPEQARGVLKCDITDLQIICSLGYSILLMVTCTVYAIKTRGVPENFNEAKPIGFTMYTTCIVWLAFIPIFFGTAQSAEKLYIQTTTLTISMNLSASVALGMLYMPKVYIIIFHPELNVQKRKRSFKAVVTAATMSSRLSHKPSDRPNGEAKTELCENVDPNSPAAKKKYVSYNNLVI

| SMILES | pIC50 |
| --- | --- |
| COc1ccccc1-c1noc2cc(-c3ccccc3)n(C)c(=O)c12 [Production Example 8, 5-methyl-3-(2-methoxyphenyl)-6-phenylisoxazolo[4,5c]pyridin-4(5H)-one] | 8.12 |
| Cn1c(-c2cccnc2)cc2onc(-c3ccncc3)c2c1=O [Production Example 32, 5-methyl-6-pyridin-3-yl-3-pyridin-4-yl-isoxazolo[4,5-c]-pyridin-4(5H)-one] | 7.98 |
